Results reported in article PMC5218480 (PLoS ONE, 2017).

Tested on: MV-4-11 cells
Experiment: Gene expression microarray analysis (Affymetrix PrimeView) and GSEA
Format: cell-based, human
Set-up: RFU PODN (11730768_x_at) / Fold change /veh PODN (11730768_x_at) / RFU LINC00158 (11744669_a_at) / Fold change /veh LINC00158 (11744669_a_at) / RFU DUSP10 (11751237_a_at) / Fold change /veh DUSP10 (11751237_a_at) / RFU ID3 (11757404_x_at) / Fold change /veh ID3 (11757404_x_at) / RFU PLEKHG5 (11737974_s_at) / Fold change /veh PLEKHG5 (11737974_s_at) / RFU LRRC4B (11730491_at) / Fold change /veh LRRC4B (11730491_at) / RFU GIMAP4 (11747438_a_at) / Fold change /veh GIMAP4 (11747438_a_at) / RFU KRT8 (11758183_x_at) / Fold change /veh KRT8 (11758183_x_at) / RFU CNN1 (11734310_a_at) / Fold change /veh CNN1 (11734310_a_at) / RFU VPS37D (11726825_at) / Fold change /veh VPS37D (11726825_at) / RFU C10orf10 (11716522_x_at) / Fold change /veh C10orf10 (11716522_x_at) / RFU KIR2DL2 /// KIR2DL4 /// KIR2DL5A /// KIR2DL5B /// KIR2DS1 /// KIR2DS2 /// KIR2DS3 /// KIR2DS4 /// KIR3DL3 /// KIR3DL3 /// KIR3DS1 (11738374_at) / Fold change /veh KIR2DL2 /// KIR2DL4 /// KIR2DL5A /// KIR2DL5B /// KIR2DS1 /// KIR2DS2 /// KIR2DS3 /// KIR2DS4 /// KIR3DL3 /// KIR3DL3 /// KIR3DS1 (11738374_at) / RFU C1QL1 (11718748_at) / Fold change /veh C1QL1 (11718748_at) / RFU TMPRSS4 (11747572_a_at) / Fold change /veh TMPRSS4 (11747572_a_at) / RFU HAMP (11756126_x_at) / Fold change /veh HAMP (11756126_x_at) / RFU RNFT2 (11725882_a_at) / Fold change /veh RNFT2 (11725882_a_at) / RFU NR4A2 (11747474_a_at) / Fold change /veh NR4A2 (11747474_a_at) / RFU ABCC12 (11746883_a_at) / Fold change /veh ABCC12 (11746883_a_at) / RFU TMEM136 (11760407_x_at) / Fold change /veh TMEM136 (11760407_x_at) / RFU CLDN22 /// WWC2 (11732394_at) / Fold change /veh CLDN22 /// WWC2 (11732394_at) / RFU HLA-DPB1 (11760878_x_at) / Fold change /veh HLA-DPB1 (11760878_x_at) / RFU SPINT1 (11716480_a_at) / Fold change /veh SPINT1 (11716480_a_at) / RFU GAP43 (11754022_s_at) / Fold change /veh GAP43 (11754022_s_at) / RFU A4GNT (11735810_at) / Fold change /veh A4GNT (11735810_at) / RFU PRB3 (11715151_x_at) / Fold change /veh PRB3 (11715151_x_at) / RFU TUBB4B (11761932_at) / Fold change /veh TUBB4B (11761932_at) / RFU CAPN14 (11732068_a_at) / Fold change /veh CAPN14 (11732068_a_at) / RFU TMCC2 (11721928_a_at) / Fold change /veh TMCC2 (11721928_a_at) / RFU IRGQ (11745062_a_at) / Fold change /veh IRGQ (11745062_a_at) / RFU FAM174B (11720279_a_at) / Fold change /veh FAM174B (11720279_a_at) / RFU TMPRSS4 (11748680_a_at) / Fold change /veh TMPRSS4 (11748680_a_at) / RFU FAM212B (11763350_a_at) / Fold change /veh FAM212B (11763350_a_at) / RFU PLEKHG5 (11743358_a_at) / Fold change /veh PLEKHG5 (11743358_a_at) / RFU ZSCAN30 (11745921_a_at) / Fold change /veh ZSCAN30 (11745921_a_at) / RFU CMKLR1 (11741424_a_at) / Fold change /veh CMKLR1 (11741424_a_at) / RFU LOC101060620 /// MAPK8IP1 (11723275_at) / Fold change /veh LOC101060620 /// MAPK8IP1 (11723275_at) / RFU SPTSSB (11747773_x_at) / Fold change /veh SPTSSB (11747773_x_at) / RFU PRSS12 (11739890_at) / Fold change /veh PRSS12 (11739890_at) / RFU BIN1 (11741810_x_at) / Fold change /veh BIN1 (11741810_x_at) / RFU WNT11 (11732464_a_at) / Fold change /veh WNT11 (11732464_a_at) / RFU C10orf10 (11716521_a_at) / Fold change /veh C10orf10 (11716521_a_at) / RFU C5orf56 (11738089_at) / Fold change /veh C5orf56 (11738089_at) / RFU CYB561 (11721691_x_at) / Fold change /veh CYB561 (11721691_x_at) / RFU ANKRD19P (11752326_a_at) / Fold change /veh ANKRD19P (11752326_a_at) / RFU OR2T12 /// OR2T33 /// OR2T8 (11738714_s_at) / Fold change /veh OR2T12 /// OR2T33 /// OR2T8 (11738714_s_at) / RFU VCAN (11748164_a_at) / Fold change /veh VCAN (11748164_a_at) / RFU JSRP1 (11732532_at) / Fold change /veh JSRP1 (11732532_at) / RFU KRTAP10-11 (11738290_x_at) / Fold change /veh KRTAP10-11 (11738290_x_at) / RFU MYO3A (11730013_a_at) / Fold change /veh MYO3A (11730013_a_at) / RFU EBF3 (11725865_a_at) / Fold change /veh EBF3 (11725865_a_at) / RFU CAMK2N1 (11719241_x_at) / Fold change /veh CAMK2N1 (11719241_x_at) / RFU C5orf56 (11738088_a_at) / Fold change /veh C5orf56 (11738088_a_at) / RFU OLFML3 (11715873_a_at) / Fold change /veh OLFML3 (11715873_a_at) / RFU LOC100653217 /// NTM (11731650_a_at) / Fold change /veh LOC100653217 /// NTM (11731650_a_at) / RFU MAPK11 (11762145_a_at) / Fold change /veh MAPK11 (11762145_a_at) / RFU FIZ1 (11724087_x_at) / Fold change /veh FIZ1 (11724087_x_at) / RFU OASL (11726364_x_at) / Fold change /veh OASL (11726364_x_at) / RFU SOX15 (11748057_x_at) / Fold change /veh SOX15 (11748057_x_at) / RFU CD79A (11719716_a_at) / Fold change /veh CD79A (11719716_a_at) / RFU HIST1H1D (11736915_at) / Fold change /veh HIST1H1D (11736915_at) / RFU CASKIN2 (11723855_a_at) / Fold change /veh CASKIN2 (11723855_a_at) / RFU LOC730098 (11760151_x_at) / Fold change /veh LOC730098 (11760151_x_at) / RFU OR4N2 (11742367_at) / Fold change /veh OR4N2 (11742367_at) / RFU PRRT2 (11749266_a_at) / Fold change /veh PRRT2 (11749266_a_at) / RFU SNX32 (11753110_a_at) / Fold change /veh SNX32 (11753110_a_at) / RFU CDHR5 (11726645_a_at) / Fold change /veh CDHR5 (11726645_a_at) / RFU RCAN1 (11760418_a_at) / Fold change /veh RCAN1 (11760418_a_at) / RFU FAM167A (11723789_a_at) / Fold change /veh FAM167A (11723789_a_at) / RFU FAM26E (11764081_at) / Fold change /veh FAM26E (11764081_at) / RFU ISYNA1 (11749810_s_at) / Fold change /veh ISYNA1 (11749810_s_at) / RFU ACY1 (11761880_at) / Fold change /veh ACY1 (11761880_at) / RFU 11764098_at / Fold change /veh 11764098_at / RFU SAMD14 (11745864_x_at) / Fold change /veh SAMD14 (11745864_x_at) / RFU NPB (11741838_a_at) / Fold change /veh NPB (11741838_a_at) / RFU TMPRSS6 (11731388_a_at) / Fold change /veh TMPRSS6 (11731388_a_at) / RFU KRTAP10-2 (11738614_at) / Fold change /veh KRTAP10-2 (11738614_at) / RFU ARHGAP8 /// PRR5-ARHGAP8 (11727945_x_at) / Fold change /veh ARHGAP8 /// PRR5-ARHGAP8 (11727945_x_at) / RFU KRTAP5-7 /// NADSYN1 (11734609_at) / Fold change /veh KRTAP5-7 /// NADSYN1 (11734609_at) / RFU RASL12 (11751679_a_at) / Fold change /veh RASL12 (11751679_a_at) / RFU CDKN2B (11736163_a_at) / Fold change /veh CDKN2B (11736163_a_at) / RFU PRF1 (11729649_at) / Fold change /veh PRF1 (11729649_at) / RFU, ZNF638 /// ZNF638-IT1 / Fold change vs veh, ZNF638 /// ZNF638-IT1 / RFU, PANK3 / Fold change vs veh, PANK3 / RFU, SH3YL1 / Fold change vs veh, SH3YL1 / RFU, ZEB2 / Fold change vs veh, ZEB2 / RFU, NRIP1 / Fold change vs veh, NRIP1 / RFU, PTTG1IP / Fold change vs veh, PTTG1IP / RFU, CAPN2 / Fold change vs veh, CAPN2 / RFU, MED14 / Fold change vs veh, MED14 / RFU, SNORA58 / Fold change vs veh, SNORA58 / RFU, C1orf63 / Fold change vs veh, C1orf63 / RFU, LRRFIP1 / Fold change vs veh, LRRFIP1 / RFU, NDUFAF7 / Fold change vs veh, NDUFAF7 / RFU, SLC12A2 / Fold change vs veh, SLC12A2 / RFU, IBTK / Fold change vs veh, IBTK / RFU, ESF1 / Fold change vs veh, ESF1 / Fold change vs veh, TMEM50B / RFU, TAOK1 / Fold change vs veh, TAOK1 / RFU, ACBD3 / Fold change vs veh, ACBD3 / RFU, TMA16 / Fold change vs veh, TMA16 / RFU, RWDD3 / Fold change vs veh, RWDD3 / RFU, BCAT1 / Fold change vs veh, BCAT1 / RFU, EDEM3 / Fold change vs veh, EDEM3 / RFU, TMEM33 / Fold change vs veh, TMEM33 / RFU, WDR75 / Fold change vs veh, WDR75 / RFU, AHCTF1 / Fold change vs veh, AHCTF1 / RFU, TFRC / Fold change vs veh, TFRC / RFU, ZDHHC17 / Fold change vs veh, ZDHHC17 / RFU, NOM1 / Fold change vs veh, NOM1 / RFU, ARL8B / Fold change vs veh, ARL8B / RFU, ZBTB11 / Fold change vs veh, ZBTB11 / RFU, TAMM41 / Fold change vs veh, TAMM41 / RFU, KIAA1704 /// LOC100996395 / Fold change vs veh, KIAA1704 /// LOC100996395 / RFU, ING1 / Fold change vs veh, ING1 / RFU, TRMT61B / Fold change vs veh, TRMT61B / RFU, FUBP3 / Fold change vs veh, FUBP3 / RFU, TP53 / Fold change vs veh, TP53 / RFU, TNKS2 / Fold change vs veh, TNKS2 / RFU, ZFP14 / Fold change vs veh, ZFP14 / RFU, ACTR2 / Fold change vs veh, ACTR2 / RFU, PPP3R1 / Fold change vs veh, PPP3R1 / RFU, PIK3R1 / Fold change vs veh, PIK3R1 / RFU, HNRNPA1 / Fold change vs veh, HNRNPA1 / RFU, RNF170 / Fold change vs veh, RNF170 / RFU, ZNF28 / Fold change vs veh, ZNF28 / RFU, RNGTT / Fold change vs veh, RNGTT / RFU, OGT / Fold change vs veh, OGT / RFU, BRD1 / Fold change vs veh, BRD1 / RFU, MARS / Fold change vs veh, MARS / RFU, ZNF655 / Fold change vs veh, ZNF655 / RFU, FAHD1 / Fold change vs veh, FAHD1 / RFU, BDP1 / Fold change vs veh, BDP1 / RFU, LRRCC1 / Fold change vs veh, LRRCC1 / RFU, ARID1A / Fold change vs veh, ARID1A / RFU, ZNF146 / Fold change vs veh, ZNF146 / RFU, ZNF330 / Fold change vs veh, ZNF330 / RFU, GPN3 / Fold change vs veh, GPN3 / RFU, C9orf123 / Fold change vs veh, C9orf123 / RFU, N4BP2L2 / Fold change vs veh, N4BP2L2 / RFU, ARFIP1 / Fold change vs veh, ARFIP1 / RFU, FAM179B / Fold change vs veh, FAM179B / RFU, BCL10 / Fold change vs veh, BCL10 / RFU, UHRF1BP1L / Fold change vs veh, UHRF1BP1L / RFU, BET1 / Fold change vs veh, BET1 / RFU, CNOT2 / Fold change vs veh, CNOT2 / RFU, ZNF268 / Fold change vs veh, ZNF268 / Fold change vs veh, ZNF507 / RFU, DGCR2 / Fold change vs veh, DGCR2 / RFU, WDSUB1 / Fold change vs veh, WDSUB1 / Fold change vs veh, HSP90B1 /// MIR3652 / RFU, ADSS / Fold change vs veh, ADSS / RFU, GK / Fold change vs veh, GK / RFU, ZNF148 / Fold change vs veh, ZNF148 / RFU, TAF9 / Fold change vs veh, TAF9 / RFU, SLC1A5 / Fold change vs veh, SLC1A5 / RFU, SLMO2 / Fold change vs veh, SLMO2 / RFU, ABCC4 / Fold change vs veh, ABCC4 / RFU, LOC101060439 /// RAP1B / Fold change vs veh, LOC101060439 /// RAP1B / RFU, RFX7 / Fold change vs veh, RFX7 / RFU, GTPBP10 / Fold change vs veh, GTPBP10 / RFU, CNEP1R1 / Fold change vs veh, CNEP1R1 / RFU, BIVM-ERCC5 /// ERCC5 / Fold change vs veh, BIVM-ERCC5 /// ERCC5 / RFU, ILF3 / Fold change vs veh, ILF3 / RFU 11762660_at / Fold change /veh 11762660_at / RFU VCAN (11757783_s_at) / Fold change /veh VCAN (11757783_s_at) / RFU DDX43 (11728927_at) / Fold change /veh DDX43 (11728927_at) / RFU KRT8 (11758188_x_at) / Fold change /veh KRT8 (11758188_x_at) / RFU NKD1 (11759106_at) / Fold change /veh NKD1 (11759106_at) / RFU SRD5A1 (11742802_a_at) / Fold change /veh SRD5A1 (11742802_a_at) / RFU TPSAB1 /// TPSB2 (11721975_s_at) / Fold change /veh TPSAB1 /// TPSB2 (11721975_s_at) / RFU GSTM3 (11746129_a_at) / Fold change /veh GSTM3 (11746129_a_at) / RFU IL23R (11737362_x_at) / Fold change /veh IL23R (11737362_x_at) / RFU TMEM51 (11727254_a_at) / Fold change /veh TMEM51 (11727254_a_at) / RFU PIWIL2 (11732686_x_at) / Fold change /veh PIWIL2 (11732686_x_at) / RFU ORM1 (11744905_x_at) / Fold change /veh ORM1 (11744905_x_at) / RFU CCDC152 (11743942_at) / Fold change /veh CCDC152 (11743942_at) / RFU ECM1 (11717891_a_at) / Fold change /veh ECM1 (11717891_a_at) / RFU IL23R (11748794_a_at) / Fold change /veh IL23R (11748794_a_at) / RFU TNFAIP8L3 (11732012_x_at) / Fold change /veh TNFAIP8L3 (11732012_x_at) / RFU MBOAT4 (11741988_at) / Fold change /veh MBOAT4 (11741988_at) / RFU 11764193_at / Fold change /veh 11764193_at / RFU TMEM53 (11763286_at) / Fold change /veh TMEM53 (11763286_at) / RFU MAGEB2 (11727129_at) / Fold change /veh MAGEB2 (11727129_at) / RFU TMEM200A (11744735_a_at) / Fold change /veh TMEM200A (11744735_a_at) / RFU CCDC152 (11751479_a_at) / Fold change /veh CCDC152 (11751479_a_at) / RFU FAM211A (11726209_a_at) / Fold change /veh FAM211A (11726209_a_at) / RFU RGS16 (11746705_a_at) / Fold change /veh RGS16 (11746705_a_at) / RFU VCAN (11755009_s_at) / Fold change /veh VCAN (11755009_s_at) / RFU RHOB (11743442_s_at) / Fold change /veh RHOB (11743442_s_at) / RFU RGS16 (11720943_a_at) / Fold change /veh RGS16 (11720943_a_at) / RFU RGS16 (11720944_at) / Fold change /veh RGS16 (11720944_at) / RFU, VPS4B / Fold change vs veh, VPS4B / RFU, CREB1 / Fold change vs veh, CREB1 / RFU, DNAJC13 / Fold change vs veh, DNAJC13 / RFU, GNAQ / Fold change vs veh, GNAQ / RFU, CDK5R1 / Fold change vs veh, CDK5R1 / RFU, ZRANB3 / Fold change vs veh, ZRANB3 / RFU, CUL4A / Fold change vs veh, CUL4A / RFU, CCNY / Fold change vs veh, CCNY / RFU, UFL1 / Fold change vs veh, UFL1 / RFU, COG3 / Fold change vs veh, COG3 / RFU, DIAPH2 / Fold change vs veh, DIAPH2 / RFU, SKA2 / Fold change vs veh, SKA2 / RFU, AFF3 / Fold change vs veh, AFF3 / RFU, LMF1 / Fold change vs veh, LMF1 / RFU, IPO11 / Fold change vs veh, IPO11 / RFU, DFFB / Fold change vs veh, DFFB / RFU, FOXP1 / Fold change vs veh, FOXP1 / RFU, CARD8 / Fold change vs veh, CARD8 / RFU, STRN3 / Fold change vs veh, STRN3 / RFU, ADK / Fold change vs veh, ADK / RFU, RASSF2 / Fold change vs veh, RASSF2 / RFU, WIPF1 / Fold change vs veh, WIPF1 / RFU, LARP1B / Fold change vs veh, LARP1B / RFU, RASA1 / Fold change vs veh, RASA1 / RFU, RB1 / Fold change vs veh, RB1 / RFU, PPFIA1 / Fold change vs veh, PPFIA1 / RFU, MAT2A / Fold change vs veh, MAT2A / RFU, CCT5 / Fold change vs veh, CCT5 / RFU, WDR92 / Fold change vs veh, WDR92 / RFU, CUX1 / Fold change vs veh, CUX1 / RFU, TTC7A / Fold change vs veh, TTC7A / RFU, TMEM135 / Fold change vs veh, TMEM135 / RFU, DEPTOR / Fold change vs veh, DEPTOR / RFU, CPM / Fold change vs veh, CPM / RFU, DNAJB6 / Fold change vs veh, DNAJB6 / RFU, CACNA2D3 / Fold change vs veh, CACNA2D3 / RFU, DTX4 / Fold change vs veh, DTX4 / RFU, TFCP2 / Fold change vs veh, TFCP2 / RFU, GMCL1 /// GMCL1P1 / Fold change vs veh, GMCL1 /// GMCL1P1 / RFU, AEBP2 / Fold change vs veh, AEBP2 / RFU, SNHG1 /// SNORD22 /// SNORD25 /// SNORD26 /// SNORD27 /// SNORD28 /// SNORD29 /// SNORD31 / Fold change vs veh, SNHG1 /// SNORD22 /// SNORD25 /// SNORD26 /// SNORD27 /// SNORD28 /// SNORD29 /// SNORD31 / Fold change (Aza/veh), C12orf56 (ProbeSet 11735607_a_at) / Fold change (ACY-1035/veh), C12orf56 (ProbeSet 11735607_a_at) / Fold change (Aza/veh), FGFR1OP (ProbeSet 11751329_s_at) / Fold change (ACY-1035/veh), FGFR1OP (ProbeSet 11751329_s_at) / Fold change (Aza/veh), VPS36 (ProbeSet 11739960_a_at) / Fold change (ACY-1035/veh), VPS36 (ProbeSet 11739960_a_at) / RFU SYPL1 (11715823_x_at) / Fold change /veh SYPL1 (11715823_x_at) / RFU IGFBP7 (11715501_s_at) / Fold change /veh IGFBP7 (11715501_s_at) / RFU REEP3 (11722064_at) / Fold change /veh REEP3 (11722064_at) / RFU IGLL1 (11728026_x_at) / Fold change /veh IGLL1 (11728026_x_at): dose or concentration left out as unconfirmed
Settings: MV-4-11 cells, 48 hours

With `Nc1ccc(-c2cccs2)cc1NC(=O)c1ccc2c(c1)cc(C1CC1)n2CCN1CCOCC1` [ACY-1035] as the compound, how does the “Fold change /veh CLDN22 /// WWC2 (11732394_at)” value read?
Its value is 1.04.
